Assay results taken from paper PMC9515143, “Phosphorylation of Jhd2 by the Ras-cAMP-PKA(Tpk2) pathway regulates histone modifications and autophagy” (Nature Communications, 2022).
Where a SMILES comes first, the peptide text is derived from it. The star is where a group is joined. Cbz = O=C(OCc1ccccc1)*

What was measured:
H3K4me3 = assay: Western blot of H3K4me3 in yeast cells treated with glucose, 2-DG, FBP or pyruvate; type: cell-based, budding yeast (Saccharomyces cerevisiae); settings: for H3K4me3 level after FBP or pyruvate treatment: spheroplasts (Zymolase), different concentrations of FBP or pyruvate, 3 hr
Text: To examine the effect of glucose on histone modifications, we grew yeast cells in 2% glucose-containing medium (YPD) until log phase. Cells were collected and then grown in the medium containing different concentrations of glucose for 0.5 hr.
PKA is activated by cyclic AMP (cAMP), which binds to its inhibitory subunit, Bcy1 and causes its dissociation (Fig. 1g). We thus examined H3K4me3 in deletion mutants of cAMP phosphodiesterases PDE1 and PDE2, which encode enzymes to hydrolyze cAMP and inactivate PKA[39],[40]. […] To test whether the Ras-cAMP-PKA pathway mediates glucose-induced H3K4me3, we examined H3K4me3 in ras1Δ and ras2Δ mutants. […] Ras1/2 can be activated by glycolysis-derived fructose-1,6-biphosphate (FBP) via Cdc25[6] (Fig. 1g).
To examine the effect of glucose on histone modifications, yeast cells were grown in 2% glucose-containing YPD (Yeast Extract Peptone Dextrose) medium until OD600 of 0.7–1.0. Cells were then collected, washed and resuspended in YP medium for 3 hr followed by treatment with different concentrations of glucose for 0.5 hr. For 1NM-PP1 (MCE, HY-13804) treatment, cells were grown in 2% YPD until OD600 of 0.7–1.0. Cells were then treated with 25 μM 1NM-PP1 for 0.5 hr. For FBP and pyruvate treatment, cells were pre-treated with Zymolase (Mpbio, 08320921) to increase the permeability. In brief, cells were grown in YPD medium until OD600 of 0.7–1.0, centrifuged and resuspended in 1 ml SB buffer (100 mM Sorbitol, 20 mM Tris pH 7.4). 10 μl Zymolase was then added and incubated at 30 °C for 15 min. The spheroplasts were washed and cultured in YPD medium containing different concentrations of FBP and pyruvate for 3 hr.
(§1) Cells were grown in 5 ml YPD or selective medium until OD600 of 0.7–1.0. Cells were harvested and lysed in alkaline lysis buffer (2 M NaOH, 8% 2-mercaptoethanol). After centrifugation, the protein pellet was resuspended in 150 μl 2×SDS-sample buffer. Protein samples were separated by 8–15% SDS-PAGE and transferred to PVDF membrane. The blots were probed with primary antibodies followed by incubation with horseradish peroxidase-labelled IgG secondary antibodies. The protein bands were visualized using the ECL Chemiluminescence Detection Kit (Bio-Rad, 170–5061) and quantified with Image J software (v.1.8.0).

Jhd2-S321A, S340A = molecular target: T1, Jhd2-S321A, S340A (Saccharomyces cerevisiae, UniProt P47156, S321A/S340A); assay: Jhd2 protein level in Jhd2-S321A, S340A cells with MG132; type: cell-based, budding yeast (Saccharomyces cerevisiae); settings: for Jhd2/GAPDH: Jhd2-S321A,S340A +MG132, Figure 5c
T1 construct: 3xFLAG (C); made in house; host or cells: Saccharomyces cerevisiae BY4741, genomic JHD2 S321A S340A-3xFLAG
T1 sequence (P47156 whole entry S321A/S340A): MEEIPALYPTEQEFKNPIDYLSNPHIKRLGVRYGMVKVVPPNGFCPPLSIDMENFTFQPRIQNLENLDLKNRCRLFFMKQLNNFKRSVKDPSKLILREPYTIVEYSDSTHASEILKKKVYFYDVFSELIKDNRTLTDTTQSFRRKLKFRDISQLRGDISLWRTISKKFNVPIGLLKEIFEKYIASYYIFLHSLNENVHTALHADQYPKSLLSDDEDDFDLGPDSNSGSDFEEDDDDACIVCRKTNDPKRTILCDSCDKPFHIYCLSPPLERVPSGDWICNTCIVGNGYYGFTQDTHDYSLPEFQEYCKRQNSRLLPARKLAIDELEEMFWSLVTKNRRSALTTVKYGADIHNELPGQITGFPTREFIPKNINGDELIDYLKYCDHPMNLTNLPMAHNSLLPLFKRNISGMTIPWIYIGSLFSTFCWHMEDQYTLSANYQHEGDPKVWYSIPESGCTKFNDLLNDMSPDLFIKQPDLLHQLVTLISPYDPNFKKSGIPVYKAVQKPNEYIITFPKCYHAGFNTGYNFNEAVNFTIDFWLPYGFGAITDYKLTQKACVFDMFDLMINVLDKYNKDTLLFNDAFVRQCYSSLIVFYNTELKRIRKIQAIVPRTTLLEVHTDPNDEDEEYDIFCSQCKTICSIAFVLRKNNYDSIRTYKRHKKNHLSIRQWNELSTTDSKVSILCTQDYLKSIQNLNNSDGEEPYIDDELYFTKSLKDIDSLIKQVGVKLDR
Experimental: (§2) To determine how Tpk2-mediated Jhd2 phosphorylation regulates Jhd2 stability, we treated WT Jhd2 and Jhd2-S321A, S340A cells with MG132, the proteasome inhibitor. […] We also examined Jhd2 in a temperature-sensitive proteasome-deficient mutant (cim3-1), which is defective in ATPase activity of 26 S proteasome.
as §1

WT Jhd2 = molecular target: T2, WT Jhd2 (Saccharomyces cerevisiae, UniProt P47156); assay: Jhd2 protein level in WT Jhd2 cells with MG132; type: cell-based, budding yeast (Saccharomyces cerevisiae); settings: for Jhd2/GAPDH: WT +MG132, WT without MG132 = 1, Figure 5c
T2 construct: 3xFLAG (C); made in house; host or cells: Saccharomyces cerevisiae BY4741, genomic JHD2-3xFLAG::KAN
Experimental: as §2, §1

Rpd3 = Rpd3 (UniProt P32561); assay: in vivo co-IP, Western blot; settings: reference: WT Jhd2; sites S321,S340
histone H3 1-23 [1] = molecular target: histone H3 1-23 (UniProt P61830); assay: biotinylated peptide pull-down, Western blot; settings: reference: WT Jhd2; sites S321,S340
histone H3 1-23 [2] = molecular target: histone H3 1-23 (UniProt P61830); assay: biotinylated peptide pull-down, Western blot; settings: reference: WT Jhd2; sites S321,S340; remark: listed apart in the source
histone H3 1-23 [3] = molecular target: histone H3 1-23 (UniProt P61830); assay: biotinylated peptide pull-down, Western blot; settings: reference: WT Jhd2; sites S321,S340; remark: listed apart in the source
Jhd2-FLAG = molecular target: T3, Jhd2-FLAG (S. cerevisiae (budding yeast), UniProt P47156 1-728, phosphoserine at 321 and 340 (phosphorylated in vivo by Tpk2; extent not stated)); assay: co-IP; yeast whole cell extract digested with MNase, anti-FLAG M2 agarose 1 hr 4 °C, washed with 350 mM NaCl, 0.1% NP-40, Western blots; WT and tpk2Δ cells; settings: partners not purified
T3 construct: Jhd2, JmjC domain-containing H3K4 demethylase of budding yeast; tag integrated at the genomic locus; this is named in the assay format or readout; also called WT Jhd2; FLAG-purified Jhd2; not shown: FLAG, C-terminal, kept
T3 sequence (looked up): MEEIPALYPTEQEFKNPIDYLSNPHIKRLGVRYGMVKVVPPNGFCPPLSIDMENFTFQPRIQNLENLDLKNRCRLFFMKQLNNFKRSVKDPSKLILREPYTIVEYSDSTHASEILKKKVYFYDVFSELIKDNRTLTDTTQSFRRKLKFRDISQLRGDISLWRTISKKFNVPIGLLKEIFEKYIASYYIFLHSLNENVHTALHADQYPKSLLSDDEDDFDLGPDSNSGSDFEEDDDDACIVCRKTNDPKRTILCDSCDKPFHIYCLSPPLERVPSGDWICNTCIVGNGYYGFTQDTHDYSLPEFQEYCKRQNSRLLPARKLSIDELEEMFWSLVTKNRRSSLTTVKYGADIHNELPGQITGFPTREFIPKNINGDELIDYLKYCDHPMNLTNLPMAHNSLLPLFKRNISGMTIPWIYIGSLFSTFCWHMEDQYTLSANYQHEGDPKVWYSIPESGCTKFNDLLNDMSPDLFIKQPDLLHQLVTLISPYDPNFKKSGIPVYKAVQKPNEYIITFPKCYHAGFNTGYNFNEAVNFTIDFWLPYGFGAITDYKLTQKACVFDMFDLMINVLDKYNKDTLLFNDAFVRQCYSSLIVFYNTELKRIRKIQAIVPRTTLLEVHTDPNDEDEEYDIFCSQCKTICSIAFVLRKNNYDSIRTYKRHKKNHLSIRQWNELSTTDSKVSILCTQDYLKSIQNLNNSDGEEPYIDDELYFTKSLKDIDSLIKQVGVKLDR

[4] = molecular target: T4, Tpk2-phosphorylated Jhd2-FLAG (S. cerevisiae (budding yeast), UniProt P47156 1-728, phosphoserine at 321 and 340 (by purified Tpk2 in vitro)); assay: co-IP; in vitro: dephosphorylated Jhd2 immobilized on anti-FLAG beads, incubated with or without purified Tpk2, Tpk2 removed, then incubated with purified Not4; settings: both partners purified
T4 construct: Jhd2 of budding yeast, phosphorylated in vitro by Tpk2 at S321 and S340; also called immobilized phosphorylated Jhd2; not shown: FLAG, C-terminal, kept
T4 sequence (looked up): T3 sequence (looked up)

In the case of `O=CC[C@@H](O)[C@H](O)[C@H](O)CO` [2-DG, 2-Deoxy-D-glucose], the “H3K4me3 level after blocking glycolysis” value (H3K4me3; 2-DG) is reported as “significantly reduced H3K4me3”.

`O=C(COP(=O)(O)O)[C@@H](O)[C@H](O)[C@H](O)COP(=O)(O)O` [FBP, fructose-1,6-biphosphate] was tested, and the “H3K4me3 level after FBP or pyruvate treatment” value (H3K4me3) was “increased H3K4me3 in a dose-dependent manner”.

Molecule `CC(C)C[C@@H](C=O)NC(=O)[C@H](CC(C)C)NC(=O)[C@H](CC(C)C)NC(=O)OCc1ccccc1` [MG132] (Cbz-Leu-Leu-Leu-aldehyde) has a Jhd2/GAPDH (Jhd2-S321A, S340A; WT without MG132 = 1, Jhd2-S321A,S340A without MG132 = 1.51305, replicate 4) of 2.104, a Jhd2/GAPDH (Jhd2-S321A, S340A; WT without MG132 = 1, Jhd2-S321A,S340A without MG132 = 1.6488, replicate 2) of 1.451 and a Jhd2/GAPDH (Jhd2-S321A, S340A; WT without MG132 = 1, Jhd2-S321A,S340A without MG132 = 1.64948, replicate 1) of 1.2682. For the same molecule, the Jhd2/GAPDH (Jhd2-S321A, S340A; WT without MG132 = 1, Jhd2-S321A,S340A without MG132 = 1.95118, replicate 3) was 2.131, the “Jhd2 protein level, Jhd2-S321A, S340A” value (Jhd2-S321A, S340A; MG132, Western blot) was “had no significant effect on Jhd2-S321A, S340A protein level” and the “Jhd2 protein level, WT Jhd2” value (WT Jhd2; MG132, Western blot) was “significantly increased WT Jhd2 protein levels”. It also gave a Jhd2/GAPDH (WT Jhd2; replicate 1) of 1.233, a Jhd2/GAPDH (WT Jhd2; replicate 2) of 1.396 and a Jhd2/GAPDH (WT Jhd2; replicate 3) of 1.451. It also gave a Jhd2/GAPDH (WT Jhd2; replicate 4) of 1.135.

`CC(=O)C(=O)O` [pyruvate] was tested, and the “H3K4me3 level after FBP or pyruvate treatment” value (H3K4me3) was “FBP but not pyruvate treatment increased H3K4me3”.

“Jhd2 (from UniProt P47156) Jhd2-S321A, S340A” was tested, and the “binding against the reference” value (Rpd3) was “stronger”, the “binding against the reference” value (histone H3 1-23 [1]) was “stronger” and the “binding against the reference” value (histone H3 1-23 [2]) was “stronger”. For the same molecule, the “binding against the reference” value (histone H3 1-23 [3]) was “stronger”.

B1: Not4 (enzyme, S. cerevisiae (budding yeast), UniProt P34909 1-587, looked up)
chain: MMNPHVQENLQAIHNALSNFDTSFLSEDEEDYCPLCIEPMDITDKNFFPCPCGYQICQFCYNNIRQNPELNGRCPACRRKYDDENVRYVTLSPEELKMERAKLARKEKERKHREKERKENEYTNRKHLSGTRVIQKNLVYVVGINPPVPYEEVAPTLKSEKYFGQYGKINKIVVNRKTPHSNNTTSEHYHHHSPGYGVYITFGSKDDAARCIAQVDGTYMDGRLIKAAYGTTKYCSSYLRGLPCPNPNCMFLHEPGEEADSFNKRELHNKQQAQQQSGGTAFTRSGIHNNISTSTAGSNTNLLSENFTGTPSPAAMRAQLHHDSHTNAGTPVLTPAPVPAGSNPWGVTQSATPVTSINLSKNSSSINLPTLNDSLGHHTTPTTENTITSTTTTTNTNATSHSHGSKKKQSLAAEEYKDPYDALGNAVDFLDARLHSLSNYQKRPISIKSNIIDEETYKKYPSLFSWDKIEASKKSDNTLANKLVEILAIKPIDYTASVVQFLQSVNVGVNDNITITDNTKTPTQPIRLQTVSQQIQPPLNVSTPPPGIFGPQHKVPIQQQQMGDTSSRNSSDLLNQLINGRKIIAGN
notes: Not4, E3 ubiquitin ligase of budding yeast; also called purified Not4; source: S. cerevisiae
B1: binds (Jhd2-FLAG); binds [4].
